Data taken from patent US20140024653A1, “COMPOSITIONS AND METHODS FOR TREATING CANCER USING PI3K INHIBITOR AND MEK INHIBITOR” (priority 2011, published 2014).
Read-outs that look alike come from different tables or passages of the source.

Legend:
[1] = tested on: human pancreatic MiaPaCa-2; test: antitumor activity against subcutaneous MiaPaCa-2 xenografts; assay type: in vivo, nude mice; details: XL-147 50 mg/kg po QD, 21 days; 50 mg/kg
Description: The human pancreatic cancer cell line MiaPaCa-2 (American Type Culture Collection, Manassas Va.), was cultured in MEM medium containing 10% fetal bovine serum, 1% essential amino acid, 1% sodium pyruvate (Life Technologies, Carlsbad, Calif.). […] Cells were re-suspended in PBS (Life Technologies, Carlsbad, Calif.) and then mixed 1:1 with Matrigel (BD Biosciences, San Jose, Calif.). Cells were stored at 4° C. until implantation. MiaPaCa-2 cells (10×10^6 in a 200 μl PBS:Matrigel (1:1) suspension) were subcutaneously injected into the right flank area of female nude (Crl:NU-Foxn1nu) mice (6-8 weeks old, Charles River Laboratories, Wilmington, Mass.). All mice in this study were used according to the guidelines approved by the EMD-Serono Institutional Care and Animal Use Committee (IACUC), #07-003. Developing tumors located in the right flank area of female nude mice were measured over time with digital calipers. […] The remaining tumor-bearing mice were randomized into seven experimental groups (n=9), so that each group had the same mean tumor volume. […] The treatments began on the seventh day following implantation of the Miapaca-2 cells, which was designated as Day 0 for data evaluation purposes. […] Body weights and tumor volumes were assessed twice per week post treatment initiation. […] Efficacy was determined by analyzing tumor volumes and the percent ΔT/ΔC (% ΔT/ΔC). Tumor volume was determined by using the tumor length (1) and width (w) measurements and calculating the volume with the equation 1*w^2/2. The length was measured along the longest axis of the tumor and width was measured perpendicular to that length. The mean percent of actual tumor growth inhibited by the treatments was calculated as follows: [% ΔT/ΔC=(([…]))×100%], where TV=tumor volume, f=final, i=initial and Ctrl=control group. Tolerability was assessed by regarding percent body weight difference during the treatment period. Percent body weight difference was calculated as follows: [% Body weight difference=(BWc-BWi)/BWi×100%], where BW=body weight, c=current, i=initial.

[2] = tested on: human colon carcinoma HCT 116; test: HCT116 tumor growth in fluorescence molecular tomography study; assay type: in vivo, SCID mice; details: (2a) 50 mg/kg oral daily day 11 to day 17; p=0.023
[3] = tested on: human primary colon tumors CR-LRB-009C; test: antitumor activity against subcutaneous CR-LRB-009C xenografts; assay type: in vivo
Description: The human primary colon carcinoma CR-LRB-009C tumor model was established by implanting (SC) small tumor fragments and was maintained in SCID female mice using serial passages.
(§1) Treatments were administered on measurable tumors. […] Mice were checked daily, and adverse clinical reactions noted.
(§2) Animal body weights included the tumor weight.
(§3) The primary efficacy end points are ΔT/ΔC, percent median regression, partial and complete regressions (PR and CR). Statistical analyses were performed on SAS system release 8.2 for SUN4 via Everstat V5 software and SAS 9.2 software. A probability less than 5% (p<0.05) was considered as significant.

[4] = tested on: human primary colon tumors CR-LRB-013P; test: antitumor activity against subcutaneous CR-LRB-013P xenografts; assay type: in vivo
Description: The human primary colon carcinoma CR-LRB-013P tumor model was established by implanting (SC) small tumor fragments and was maintained in SCID female mice using serial passages.
as §1, §2, §3

[5] = tested on: HCT116 tumor vascular permeability; test: tumor vascular permeability, Evans Blue extravasation / Dextran-Fitc; assay type: in vivo, SCID mice; details: (2a) 50 mg/kg oral daily day 11 to day 13
Description: HCT116 tumor cells were implanted subcutaneously in the intra-scapular region in SCID mice. […] Each agent was given by oral route on a daily schedule. Tumor growth was monitored throughout the experiment by callipering the tumors. To quantify tumor vascular permeability, tumors were excised under ketamine/Xylazine (120/6 mg/kg ip) anesthesia at day 13, 4 hours post last treatment, 30 min after 0.5% Evans Blue iv injection, and 2 min post Dextran-Fitc 100 mg/kg iv injection. Tumors were then snap frozen, and 25 μm sections obtained for fluorescence quantification. Tumors sections were imaged with Icyte at 488 nm for vascular Dextran-Fitc determination and at 633 nm for Evans-Blue extravasation determination. Respective fluorescence were quantified as the sum of integral phantoms of fluorescence intensity and expressed as the mean ratio of Evans-Blue signal/Dextran-Fitc Signal.

[6] = chemical stability of dosing stock solution; assay type: physicochemical; details: in the dark at 4° C.
Description: Compound (2a) formulation was prepared in water for injection. The stock solution was chemically stable 7 days in the dark at 4° C. […] The pH of the final solution was 3. […]

[7] = tested on: human colon carcinoma HCT 116
Description: Mice were over 18 g at start of treatment after an acclimatization time of at least 5 days. […] The mice were housed on a 12 hours light/dark cycle.
Human colon carcinoma HCT 116 cells were purchased at American Type Culture Collection [(ATCC), Rockville, Md., USA). The HCT 116 cells were cultured in Dulbecco's modified Eagle's medium (DMEM) (Invitrogen).
The animals required to begin a given experiment were pooled and implanted monolaterally on day 0. Treatments were administered on measurable tumors. The solid tumors were allowed to grow to the desired volume range (animals with tumors not in the desired range were excluded). The mice were then pooled and unselectively distributed to the various treatment and control groups. […] The dosages are expressed in mg/kg, based on the body weight at start of therapy. Mice were checked daily, and adverse clinical reactions noted. Each group of mice was weighed as a whole daily until the weight nadir was reached. Then, groups were weighed once to thrice weekly until the end of the experiment. Tumors were measured with a caliper 2 to 3 times weekly until final sacrifice for sampling time, tumor reached 2000 mm^3 or until the animal died (whichever comes first). Solid tumor volumes were estimated from two-dimensional tumor measurements and calculated according to the following equation:
Changes in tumor volume for each treated (T) and control (C) group were calculated for each tumor by subtracting the tumor volume on the day of first treatment (staging day) from the tumor volume on the specified observation day. The median ΔT is calculated for the treated group, and the median ΔC is calculated for the control group. Then the ratio ΔT/ΔC is calculated and expressed as a percentage. The dose is considered as therapeutically active when ΔT/ΔC is lower than 40% and very active when ΔT/ΔC is lower than 10%.
The percent of tumor regression is defined as the % of tumor volume decrease in the treated group at a specified observation day compared to its volume on the first day of treatment. At a specific time point and for each animal, % regression is calculated. The median % regression is then calculated for the group using the following equation:
Partial regression: Regressions are defined as partial if the tumor volume decreases to 50% of the tumor volume at the start of treatment.
Complete regression: The CR is achieved when tumor volume=0 mm^3 (CR is considered when tumor volume cannot be recorded).

[8] = tested on: PC-3, U87-MG, A2058, WM-266-4 and MCF7 xenografts; details: oral administration alone; PTEN-deficient PC-3, U87-MG, A2058, WM-266-4 or PIK3CA mutated MCF7 xenografts; cited from earlier work
[9] = (2a) 75 mg/kg PO daily days 11-21
[10] = as single agents or used in combination
[11] = (2a) 75 mg/kg PO daily days 33-50
[12] = study 1, (2a) 50 mg/kg PO daily days 11-18
[13] = study 1, (2a) 75 mg/kg PO daily days 11-18
[14] = study 2, (2a) 50 mg/kg PO daily days 11-18
[15] = study 2, (2a) 75 mg/kg PO daily days 11-18
[16] = study 3, (2a) 50 mg/kg PO daily days 11-20
[17] = study 3, (2a) 75 mg/kg PO daily days 11-20

COc1ccc(Cl)c(Nc2nc3ccccc3nc2NS(=O)(=O)c2cccc(NC(=O)C(C)(C)N)c2)c1 [Compound (2a), N-(3-{[(3-{[2-chloro-5-(methoxy)phenyl]amino}quinoxalin-2-yl)amino]sulfonyl}phenyl)-2-methylalaninamide]
% ΔT/ΔC [1]: 71.2% | ΔT/ΔC at the end of study [2]: 36% | Average body weight change in % per mouse at nadir [3, 9]: −15.8 (21) % | Drug death [3, 9]: 0/7 | Median ΔT/ΔC in % day 21 [3, 9]: 39% | Regressions Complete [3, 9]: 0/7 | Regressions Partial [3, 9]: 0/7 | tolerability [3, 10]: tolerated, inducing some BWL but not reaching toxicity | Average body weight change in % per mouse at nadir [4, 11]: −9.2 (50) % | Drug death [4, 11]: 0/7 | Median ΔT/ΔC in % day 50 [4, 11]: 53% | Regressions Complete [4, 11]: 0/7 | Regressions Partial [4, 11]: 0/7 | tolerability [4, 10]: tolerated, inducing some BWL but not reaching toxicity | decrease of the Evans-Blue/Dextran-Fitc ratio compared to control [5]: −8% | stock solution chemically stable ([6]; in 1N HCl and water for injection, pH 3): 7 days | stock solution chemically stable ([6]; in water for injection): 7 days | Average body weight change in % per mouse at nadir [7, 12]: −5.8 (18) % | Drug death [7, 12]: 0/7 | Median ΔT/ΔC in % day 18 [7, 12]: 62% | Regressions Complete [7, 12]: 0/7 | Regressions Partial [7, 12]: 0/7 | Average body weight change in % per mouse at nadir [7, 13]: −8.3 (18) % | Drug death [7, 13]: 0/7 | Median ΔT/ΔC in % day 18 [7, 13]: 80% | Regressions Complete [7, 13]: 0/7 | Regressions Partial [7, 13]: 0/7 | tolerability ([7]; study 1, as single agents or used in combination): well-tolerated, inducing minimal BWL | Average body weight change in % per mouse at nadir [7, 14]: −7.7 (18) % | Drug death [7, 14]: 0/7 | Median ΔT/ΔC in % day 18 [7, 14]: 52% | Regressions Complete [7, 14]: 0/7 | Regressions Partial [7, 14]: 0/7 | Average body weight change in % per mouse at nadir [7, 15]: −6.7 (18) % | Drug death [7, 15]: 0/7 | Median ΔT/ΔC in % day 18 [7, 15]: 56% | Regressions Complete [7, 15]: 0/7 | Regressions Partial [7, 15]: 0/7 | tolerability ([7]; study 2, as single agents): well-tolerated, inducing minimal BWL | Average body weight change in % per mouse at nadir [7, 16]: −7.8 (19) % | Drug death [7, 16]: 0/10 | Median ΔT/ΔC in % day 20 [7, 16]: 66% | Regressions Complete [7, 16]: 0/10 | Regressions Partial [7, 16]: 0/10 | Average body weight change in % per mouse at nadir [7, 17]: −8.5 (20) % | Drug death [7, 17]: 0/10 | Median ΔT/ΔC in % day 20 [7, 17]: 64% | Regressions Complete [7, 17]: 0/10 | Regressions Partial [7, 17]: 0/10 | tolerability ([7]; study 3, as single agents): well-tolerated, inducing minimal BWL | tumor growth [8]: inhibits tumor growth
